Experimental data reported in patent publication US5216003A, “Diacid-containing benzimidazole compounds for treatment of neurotoxic injury” (G. D. Searle & Co., priority 1992, dated 1993).

Experiments:
[1] = system: NMDA receptor (rat brain hippocampal tissue); conditions: evaluation of CPP binding to rat brain hippocampal tissue; Murphy et al 1987; cited from earlier work
[2] = molecular target: NMDA receptor (N-methyl-D-aspartate-specific L-[3H]glutamate recognition site in synaptic plasma membranes); assay: NMDA-Selective Glutamate Binding Assay, L-[3H]glutamate; design: species or system rat; conditions: 12.5 nM L-[3H]glutamate, pH 7.4, 0-4 °C, 10 min; read-out: [3H]GLU Ki
Procedure: (§1) Synaptic plasma membranes (SPM) were prepared as previously described [Monahan, J. B. and Michel, J., "Identification and Characterization of an N-methyl-D-aspartate-specific L[^3 H]glutamate Recognition Site in Synaptic Plasma Membranes", J. Neurochem., 48, 1699-1708 (1987)]. The SPM were stored at a concentration of 10-15 mg/ml in 0.32M sucrose, 0.5 mM EDTA, 1 mM MgSO4, 5 mM Tris/SO4, pH 7.4, under liquid nitrogen. The identity and purity of the subcellular fractions were confirmed by both electron microscopy and marker enzymes. Protein concentrations were determined by using a modification of the method of Lowry [Ohnishi, S. T. and Barr, J. K., "A Simplified Method of Quantitating Proteins Using the Biuret and Phenol Reagents", Anal. Biochem., 86, 193-197 (1978)]. The SPM were treated identically for the [^3 H]AMPA (QUIS), [^3 H]kainate and sodium-dependent L-[^3 H]-glumatate binding assays. […] Beckman MP scintillation cocktail containing 7 mL/l acetic acid was then added and the samples counted on a Beckman LS 5800 or 3801 liquid scintillation counter with automatic corrections for quenching and counting efficiency. […] Radioligand binding to the synaptic plasma membranes was analyzed using Scatchard and Hill transformations and the Ki values of the compounds determined using logit-log transformations. […]

motor function = assay: inverted screen test for motor impairment; assay type: in vivo, male CD-1 mice; conditions: for Exhibiting Motor Impairments (% of Mice): 56 mg/kg s.c., n = 10, vehicle 10 (n = 20)
Procedure: This assay was used to determine the extent of in vivo protection against convulsions afforded by compound of the invention to mice subjected to artifically-induced convulsive conditions. Naive male CD-l mice (20-30 grams body weight) from Charles River Laboratories, Portage Mich. served as subjects. The mice had ad libitum access to food and water prior to testing and were maintained on a 12 hour light/12 hour dark schedule with testing during the light portion of the cycle. The mice were tested for motor impairment by use of the inverted screen test approximately 5 minutes prior to anticonvulsant testing. The inverted screen apparatus was similar to that described by Coughenour et al [Pharmacol. Biochem. Behav., 6, 351-353 (1977)]. Mice were placed on 13×13 cm pieces of #4 wire mesh screen which were mounted horizontally. The screens were then slowly inverted. […] Tonic hindlimb extensor seizures were then produced by application of electroconvulsive shock through concave electrodes to the eyeballs. Both the eyeballs and the electrodes were moistened with 0.9% saline to improve conductivity. The ECS stimulus was generated by use of a Grass model S48D stimulator with a Grass model CCUlA constant current unit in series with the output. Stimulation consisted of 10 msec pulses of a 60 pps single phase square wave for a duration of 200 msec. The current was held constant at 15 mA. Compound of Example #1 was suspended in a vehicle of 0.9% saline with a few drops of PG-Tween added. PG-Tween is a 1:1 mixture of propylene glycol and Tween 80. The Example #1 compound or vehicle was administered s.c. in a volume of 10 ml/kg body weight 30 minutes prior to application of the ECS stimulus. […] There were 10 mice in each treatment group.

[3] = molecular target: [3H]MK-801 binding in rat SPM; assay: [3H]MK-801 Binding assay; conditions: 5.0 nM [3H]MK-801, 10.0 nM L-glutamate, pH 7.4, 25 °C, 30 min
Procedure: Modulation of [^3 H]MK-801 binding was performed using Triton X-100 (0.04% v/v) treated rat SPM that had been extensively washed. Assay incubations were at 25° C. for 30 min. and contained 5.0 nM [^3 H]MK-801, L-glutamate (10.0 nM), and various concentrations of the tested compound in 50 mM Tris/acetate, pH 7.4. The assay was stopped by rapid filtration, using Brandel MB-48 Harvester, through Whatman GF/B filters treated with 0.05% polyethylenimine and the samples washed four times with 2.0 mL cold buffer. The radioactivity associated with the filter was determined by liquid scintillation spectrometry. Nonspecific binding was defined using 60 μM MK-801. IC50 were determined using a logit-log transformation of the binding data.

[4] = system: pyramidal cells in CA1 of the hippocampus; assay: Forebrain Ischemia Assay (bilateral carotid occlusion, neuron count); assay type: in vivo, Mongolian gerbil; conditions: for # of Neurons/Field: 7 days
Procedure: This assay was used to determine the extent of protection afforded by compound of the invention to neural brain cells subjected to ischemic conditions. Male Mongolian gerbils, 50-70 gm, were used as subjects. Compound Example #1 was injected i.p. 30 minutes prior to carotid occlusion into 6 gerbils […]. In preparation for surgical procedures, the animals were lightly anesthetized with methoxyflurane and placed upside down on a heated pad with their snout within a nosecone. A 70:30 mixture of nitrous oxide and oxygen containing 0.5% halothane was circulated through the nosecone to provide continuous anesthesia throughout the surgical procedure. A midline incision was made in the neck and the carotid arteries were exposed. A length of suture thread was placed under each carotid. The thread was then tightened around each carotid and pressure applied to the thread to insure flow was occluded. Flow was occluded for 4-5 minutes and then the thread was removed. The carotids were visually inspected to confirm that reflow had occurred. The wound was then closed with autoclips and the gerbils allowed to recover. Following surgery, the gerbils were kept alive for 7 days. They were anesthetized with 100 mg/kg sodium pentobarbital and perfused transcardially with saline (with heparin) followed by buffered formalin. The brain was removed, trimmed and prepared for histological processing. Sections (10 microns) were stained with thionin. At 7 days following this type of transient global forebrain ischemia, damaged neurons in the vulnerable CAl region of the hippocampus have degenerated and been cleared away by glia. Quantification of the resulting lesion is made by counting the pyramidal cell somata in a 0.5 mm length of CAl of the hippocampus on the section corresponding to P 1.7 mm in the gerbil brain atlas. […] The effects of compound of Ex. #1 were assessed by comparing the number of neural cells found in the hippocampus of subjects treated with Ex. #1 compound with the cell number found in the appropriate control groups. […]

Kainate (KA) receptor = assay: [3H]kainate (KA) binding assay on synaptic plasma membranes; design: species or system rat; conditions: 0.5 nM [3H]kainate, pH 7.4, 0-4 °C, 60 min
Procedure: as §1

[5] = system: tonic hindlimb extensor seizures; assay: Anticonvulsant Assay (electroconvulsive shock); assay type: in vivo, male CD-1 mice; conditions: 30 min prior to ECS; for Protected from ECS (% of Mice): 56 mg/kg s.c., n = 10, vehicle 5 (n = 20)

| SMILES | NMDA antagonism [1] | Ki [2] | Exhibiting Motor Impairments (% of Mice) (motor function; Test A) | Exhibiting Motor Impairments (% of Mice) (motor function; Test B) | motor function (motor function; s.c., similar dose range as anticonvulsant effect) | Ki [3] | # of Neurons/Field ([4]; 300 mg/kg i.p. 30 min prior to carotid occlusion, control 19.8, p < 0.01) | # of Neurons/Field ([4]; 500 mg/kg i.p. 30 min prior to carotid occlusion, control 39.8, p < 0.005) | cell loss ([4]; i.p., 300 and 500 mg/kg, vs control, Mann-Whitney U test) | KA Ki (Kainate (KA) receptor) | Protected from ECS (% of Mice) ([5]; Test A) | Protected from ECS (% of Mice) ([5]; Test B) | protection against tonic hindlimb extensor seizures ([5]; s.c.) |
| --- | --- | --- | --- | --- | --- | --- | --- | --- | --- | --- | --- | --- | --- |
| O=C(O)C1CN(CCCP(=O)(O)O)CCN1 (stereo not shown) [CPP, 3-(2-carboxypiperazin-4-yl)propyl-1-phosphonic acid] | potent and selective NMDA antagonist |  |  |  |  |  |  |  |  |  |  |  |  |
| O=C(O)c1nc2cccc(CP(=O)(O)O)c2[nH]1 [Example 1, 2-carboxy-4-phosphonomethylbenzimidazole] |  | 1.6 µM | 10 % of Mice | 0 % of Mice | impaired motor function in a similar dose range | 3.9 µM | 44.3 # of Neurons/Field | 137.4 # of Neurons/Field | significantly reduced | > 100 µM | 50 % of Mice | 20 % of Mice | protected against tonic hindlimb extensor seizures in a dose-dependent fashion |
